Drawing on ChEMBL document CHEMBL1949658, “3D-QSAR and 3D-QSSR models of negative allosteric modulators facilitate the design of a novel selective antagonist of human α4β2 neuronal nicotinic acetylcholine receptors” (Bioorg Med Chem Lett, 2012), this text covers IC50, Ratio IC50 and logP for one compound.

In general, IC50 refers to the concentration needed to halve the response being measured. By logP is commonly meant the decadic logarithm of the partition coefficient of the neutral form, usually between octanol and water. A lower logP goes with a more hydrophilic compound.

Bounds are passed on as bounds.

In data set [1] the target is Neuronal acetylcholine receptor; alpha3/beta4 (Homo sapiens, UniProt P30926+P32297). Description: Antagonist activity at human nAChR alpha3/beta4 receptor expressed in HEK ts201 cells assessed as calcium accumulation by fluorescence analysis. It counts as functional, cell-based. The note with it: read-out: IC50.
The species named for data set [2] is Homo sapiens. Description: Selectivity ratio of IC50 for human nAChR alpha3/beta4 receptor to IC50 for human nAChR alpha4/beta2 receptor.
For data set [3], the target named is Neuronal acetylcholine receptor; alpha4/beta2 (Homo sapiens, UniProt P17787+P43681). The experiment in a line: Antagonist activity at human nAChR alpha4/beta2 receptor expressed in HEK ts201 cells assessed as calcium accumulation by fluorescence analysis. It counts as functional, cell-based. Particulars: read-out: IC50.
A short description of data set [4]: Lipophilicity, log P of the compound. It counts as physicochemical. Particulars: octanol/water.

Neuronal acetylcholine receptor; alpha4/beta2, sequence (P17787 whole entry): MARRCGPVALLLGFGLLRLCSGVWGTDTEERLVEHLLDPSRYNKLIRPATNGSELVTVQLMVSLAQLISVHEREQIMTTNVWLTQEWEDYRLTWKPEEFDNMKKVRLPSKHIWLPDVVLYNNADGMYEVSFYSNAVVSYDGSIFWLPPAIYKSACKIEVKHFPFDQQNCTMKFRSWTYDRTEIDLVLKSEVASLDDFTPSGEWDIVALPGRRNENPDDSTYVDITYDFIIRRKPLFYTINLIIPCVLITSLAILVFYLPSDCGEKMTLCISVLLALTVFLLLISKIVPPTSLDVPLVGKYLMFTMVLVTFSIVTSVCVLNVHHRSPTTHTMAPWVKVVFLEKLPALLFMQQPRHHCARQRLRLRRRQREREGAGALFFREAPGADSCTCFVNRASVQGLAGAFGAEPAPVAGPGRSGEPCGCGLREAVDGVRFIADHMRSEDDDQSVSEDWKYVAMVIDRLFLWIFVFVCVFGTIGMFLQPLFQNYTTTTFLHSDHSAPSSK
Neuronal acetylcholine receptor; alpha4/beta2, sequence (P43681 whole entry): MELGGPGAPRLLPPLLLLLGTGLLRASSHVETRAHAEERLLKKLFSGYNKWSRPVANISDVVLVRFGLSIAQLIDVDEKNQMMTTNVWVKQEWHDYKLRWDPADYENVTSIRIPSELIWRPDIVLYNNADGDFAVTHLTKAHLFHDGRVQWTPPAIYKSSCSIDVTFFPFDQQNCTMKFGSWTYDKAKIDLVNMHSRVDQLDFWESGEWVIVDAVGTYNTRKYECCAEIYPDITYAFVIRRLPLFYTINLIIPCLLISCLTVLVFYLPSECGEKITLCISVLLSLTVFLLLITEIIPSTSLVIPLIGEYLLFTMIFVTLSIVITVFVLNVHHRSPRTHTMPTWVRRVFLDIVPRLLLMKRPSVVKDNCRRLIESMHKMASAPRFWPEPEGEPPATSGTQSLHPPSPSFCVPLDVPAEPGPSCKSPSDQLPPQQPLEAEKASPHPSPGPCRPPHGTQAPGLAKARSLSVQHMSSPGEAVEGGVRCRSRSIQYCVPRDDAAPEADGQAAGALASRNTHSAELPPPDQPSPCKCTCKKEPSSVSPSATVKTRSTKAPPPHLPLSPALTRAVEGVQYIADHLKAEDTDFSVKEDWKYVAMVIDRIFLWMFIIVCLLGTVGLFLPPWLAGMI
Neuronal acetylcholine receptor; alpha3/beta4, sequence (P30926 whole entry): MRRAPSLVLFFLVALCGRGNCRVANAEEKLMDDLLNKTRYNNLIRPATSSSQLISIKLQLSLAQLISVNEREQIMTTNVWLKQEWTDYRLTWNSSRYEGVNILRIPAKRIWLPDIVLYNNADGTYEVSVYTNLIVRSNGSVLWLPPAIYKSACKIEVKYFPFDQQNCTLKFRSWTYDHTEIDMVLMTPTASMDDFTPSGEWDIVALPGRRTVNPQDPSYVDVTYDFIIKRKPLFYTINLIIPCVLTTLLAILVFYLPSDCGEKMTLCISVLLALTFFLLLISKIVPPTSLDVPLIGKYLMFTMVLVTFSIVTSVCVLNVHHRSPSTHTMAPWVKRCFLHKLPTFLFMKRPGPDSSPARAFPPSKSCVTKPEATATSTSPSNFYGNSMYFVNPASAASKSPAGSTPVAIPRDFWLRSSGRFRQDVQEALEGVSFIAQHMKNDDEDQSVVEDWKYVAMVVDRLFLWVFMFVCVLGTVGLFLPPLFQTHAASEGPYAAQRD
Neuronal acetylcholine receptor; alpha3/beta4, sequence (P32297 whole entry): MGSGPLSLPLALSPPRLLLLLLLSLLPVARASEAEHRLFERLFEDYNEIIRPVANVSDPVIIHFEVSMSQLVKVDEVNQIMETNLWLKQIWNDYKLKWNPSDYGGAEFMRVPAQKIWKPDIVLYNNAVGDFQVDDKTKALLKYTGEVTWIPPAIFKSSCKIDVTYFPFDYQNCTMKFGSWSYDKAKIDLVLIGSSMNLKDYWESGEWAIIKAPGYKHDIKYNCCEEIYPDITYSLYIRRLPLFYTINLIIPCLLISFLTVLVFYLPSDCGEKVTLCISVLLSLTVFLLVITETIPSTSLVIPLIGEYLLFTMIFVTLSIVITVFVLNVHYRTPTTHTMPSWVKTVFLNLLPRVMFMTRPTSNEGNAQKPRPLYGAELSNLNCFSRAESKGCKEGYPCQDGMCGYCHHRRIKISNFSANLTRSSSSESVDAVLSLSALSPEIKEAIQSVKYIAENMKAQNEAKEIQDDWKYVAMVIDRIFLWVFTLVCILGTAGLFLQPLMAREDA

With `O=C(NCc1cccc2ccccc12)c1ccccc1-c1ccccc1`, the IC50 is more than 100 µM in data set [1] and 13.9 µM in data set [3]. Further, the Ratio IC50 in data set [2] is more than 10. In data set [4], this compound had a logP of 5.
